The results in this text go back to article PMC8039944, “Characterization of drug-induced human mitochondrial ADP/ATP carrier inhibition” (Theranostics, 2021).

The target of experiment [1] is T1, human mitochondrial ADP/ATP carrier isoform 1 (hAAC1) (Homo sapiens, UniProt P12235).
T1 sequence (P12235 11-298): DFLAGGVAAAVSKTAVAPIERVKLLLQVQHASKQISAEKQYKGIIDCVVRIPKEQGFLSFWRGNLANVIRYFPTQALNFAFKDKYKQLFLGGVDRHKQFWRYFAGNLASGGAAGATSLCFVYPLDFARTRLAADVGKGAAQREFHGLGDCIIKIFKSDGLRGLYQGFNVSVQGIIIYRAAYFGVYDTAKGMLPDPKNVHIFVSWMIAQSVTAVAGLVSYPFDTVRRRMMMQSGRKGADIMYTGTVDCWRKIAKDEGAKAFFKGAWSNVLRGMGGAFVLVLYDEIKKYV
Briefly: […]-ATP uptake in proteoliposomes, inhibition at […]. Format: biochemical. Also on record: gene SLC25A4; hAAC1Δ1-10, residues 11-298. To be noted: read-out: % inhibition at 100 μM.

Experiment [2] concerns the target T1, human mitochondrial ADP/ATP carrier isoform 1 (hAAC1). More on the design: gene SLC25A4.
For experiment [3] the target is unchanged. Briefly: […]-ATP uptake in proteoliposomes, dose-response. Type of experiment: biochemical. Also on record: gene SLC25A4; hAAC1Δ1-10, residues 11-298.
The target is the same in experiment [4]. Description: […]-ATP uptake in proteoliposomes, dose-response; CPM thermal shift (+[…] °C at […]). Type of experiment: biochemical. More on the design: gene SLC25A4; hAAC1Δ1-10, residues 11-298.

The inhibition is the change of the read-out against control, counted positive when it falls. In general, Km refers to the substrate concentration at which the rate is half of its maximum. A word on the IC50: it is the concentration that inhibits the measured activity by half.

In the case of `O=C1c2c(O)cccc2Cc2cccc(O)c21` [anthralin], the inhibition at 100 µM in experiment [1] came to 77%.
Regarding `Nc1ncnc2c1ncn2[C@@H]1O[C@H](COP(=O)(O)OP(=O)(O)OP(=O)(O)O)[C@@H](O)[C@H]1O` [ATP], the Km in experiment [2] stood at 3.2 µM.
Compound `O=C(O)C[C@@H]1C(=O)O[C@H]2[C@H](OC(=O)c3cc(O)c(O)c(O)c3)[C@@H](OC(=O)c3cc(O)c(O)c4c3[C@H]1[C@H](O)C(=O)O4)[C@H](OC(=O)c1cc(O)c(O)c(O)c1)O[C@@H]2COC(=O)c1cc(O)c(O)c(O)c1` [chebulinic acid] registered an IC50 in experiment [3] of 6.5 µM.
Regarding `O=C(O)c1ccc2cc(-c3ccc(O)c(C45CC6CC(CC(C6)C4)C5)c3)ccc2c1` [CD-437], in experiment [3] (read-out: IC50), the IC50 is 20 µM.
Regarding `Cc1ccc(C(=O)Nc2ccc(S(=O)(=O)O)c3cc(S(=O)(=O)O)cc(S(=O)(=O)O)c23)cc1NC(=O)c1cccc(NC(=O)Nc2cccc(C(=O)Nc3cc(C(=O)Nc4ccc(S(=O)(=O)O)c5cc(S(=O)(=O)O)cc(S(=O)(=O)O)c45)ccc3C)c2)c1` [suramin], the IC50 in experiment [4] amounted to 2.4 µM.
For `CC1=C(/C=C/C(C)=C/C=C/C(C)=C/C(=O)O)C(C)(C)CCC1` [tretinoin], the inhibition at 100 µM in experiment [1] worked out at 59%.
